# According to US20090156638A1, “Uses of nordihydroguaiaretic acid (NDGA) and derivatives thereof in preventing transmission of sexually transmitted diseases” (priority 2007, published 2009):
# Key:
# HPV 16 = assay: HPV inhibition in C33A cells; format: cell-based; conditions: C-33-A, read-out: Inhibitory Concentration (IC50 or EC50)
# HSV-1 [1] = system: HSV-1
# Description: The dorsal cutaneous guinea pig model system is a well-established model for HSV-1 infection.
# In FIGS. 6A-6D, for topical treatment with M4N sections of shaved and depilated dorsal guinea pig skin were infected equally were infected with HSV-1.
# McKrae strain). […] Treatments were administered twice daily and photogragphs were taken at day 6 post-infection. […] Regions 1 and 4 were infected with high levels of HSV-1 (1×10^8 pfu/mL), regions 2 and 5 were infected with moderate levels of HSV-1 (1×10^6 pfu/mL) and regions 3 and 6 were infected with low levels of HSV-1 (1×10^4 pfu/mL).
# [2] = Human safety, tolerability and pharmacokinetic study of M4N vaginal ointment
# [3] = 14-day toxicity study in dogs, toxicokinetics; format: in vivo, beagle dogs; conditions: for highest mean plasma concentration: Day 14; for Tmax: read-out: median Tmax
# Description: Three beagle dogs/sex/group received doses of 0 (0.50 mL/kg DMSO), 10, 50, and 100 mg/kg (0.05, 0.25, 0.5 mL/kg) M4N. Approximately 4 mL of blood was collected from the jugular vein at each sampling time point of 0.5, 1, 4, 8, and 12 hours after dosing on Days 1, 7, and 14. Three dogs/sex/group were rotated in ascending order for each dose group. Plasma was isolated and analyzed for M4N by HPLC assay.
# [4] = Stability of M4N ointment formulation; format: physicochemical; conditions: 2% wt/wt ointment in white petrolatum, 5 mL containers
# From the text: Two dosing schemes were used.
# HSV-1 [5] = assay: Mutation-insensitivity: IC50 against HSV-1 over ten virus passages; format: cell-based
# From the text: In contrast, host factors, unlike viral factors, are under no selective pressure to mutate and are in general structurally invariable. […] Table 1 compares the IC50 of M4N and acyclovir for ten passages.
# HSV-2 = assay: Mouse vaginal model of HSV-2 infection; format: in vivo, CF-1 mice; conditions: 20 mg/ml in Vaseline
# Description: The efficacies of […] (FIG. 8A) and […] (FIG. 8A) against HSV-2 in a mouse vaginal model system have also been examined. […] At the end of three days, the vaginal lavages were collected from the washings of the vagina regions. The status of the vaginal HSV-2 infection and replication were examined by their cytopathic effects on cultured human foreskin fibroblast cells. Monitoring and scoring were carried out by three persons independently.
# [6] = Single dose s.c. rabbit irritation study
# Description: 4 male and 2 female New Zealand White rabbits received single s.c. injections of saline (1 mL), DMSO (1 mL), 20 mg (0.1 mL) M4N, and 200 mg (1 mL) M4N at each of four sites. Mortality, clinical observations, body weights, dermal irritation, gross necropsy findings, and microscopic pathology were evaluated. […] All injection sites were preserved in 10% neutral-buffered formalin (NBF).
# [7] = system: Sp1 regulated transcription of HPV E6/E7; assay: Sp1 regulated HPV E6/E7 transcription, luciferase assays and C3 tumor lines; format: cell-based; conditions: luciferase assays and HPV induced mouse cervical C3 tumor lines
# From the text: (§1) The […] (IE) ICP4 gene of HSV is essential for HSV replication.
# [8] = system: acyclovir-resistant strains of HSV-1 (HSV-1^R); conditions: Chen et al., FIG. 3; cited from earlier work
# [9] = Fourteen day rabbit intravaginal irritation study
# ICP4 gene of HSV = assay: Inhibition of HSV ICP4 gene transcription; format: cell-based, HSV-1; conditions: previously determined
# From the text: as §1
# [10] = in vivo, 45 mg/kg; cited from earlier work
# [11] = 14-day toxicity study in rats, toxicokinetics; format: in vivo; conditions: for Tmax / Cmax: rat, plasma; for Tmax: 500 mg/kg; for Cmax: Group 10 (500 mg/kg), Day 14
# Description: The toxicokinetics study consisted of four dose-groups (0, 50, 100, 500 mg/kg) with 6 animals/sex/group. Approximately 0.7 mL of blood was collected from the jugular vein from 3 rats/sex/group rotated in ascending order for each dose group at 0.5, 1, 4, 8, and 12 hours post-dose on Days 1, 7, and 14. Plasma was isolated and analyzed for M4N by HPLC assay.
# [12] = mouse, in vivo
# HIV-1 = assay: microbe, parasite or virus in culture; conditions: Human immunodeficiency virus 1, IIIB, COS, read-out: Inhibitory Concentration (IC50 or EC50)
# [13] = fourteen women, M4N ointment/placebo crossover
# [14] = all samples, Days 1 and 7, LOQ 0.4000
# [15] = rabbit vaginal irritation study
smiles,measurement,setting,value
"COc1ccc(C[C@@H](C)[C@@H](C)Cc2ccc(OC)c(OC)c2)cc1OC [M4N, tetra-O-methyl-nordihydroguaiaretic acid]",IC50,HPV 16,30 µM
same,efficacy by time of first treatment after infection,"HSV-1 [1]; 170 μM, first treated 10 min, 24 h, 48 h, 72 h after infection","better efficacy when treatment commenced shortly, within 24, after infection"
same,inhibition of HSV-1 induced cutaneous lesion formation and viral shedding,"HSV-1 [1]; topical application, guinea pig",effectively inhibited HSV-1 induced cutaneous lesion formation and viral shedding
same,toxicity or dermal irritation,"HSV-1 [1]; topical, even at the highest soluble concentrations (150 mM)",no evidence of toxicity or dermal irritation
same,tolerability,"[2]; 90 mg (2% wt/wt) intravaginally once per day for 7 days, healthy women",well tolerated
same,detection in serum pharmacokinetic samples,"[2]; days 1 and 7, 1, 2, 4, 6 hours after dosing, lower limit of detection 1 ng/mL",no detection of M4N
same,abdominal pain reported,[2]; [13],1 subjects
same,groin pain reported,[2]; [13],1 subjects
same,headaches reported,[2]; [13],3 subjects
same,tooth abscess reported,[2]; [13],1 subjects
same,upper respiratory tract infection reported,[2]; [13],2 subjects
same,application site irritation reported,[2]; might have been caused by the M4N ointment,1 subjects
same,highest mean plasma concentration,[3]; Group 3 (50 mg/kg),1.004 µg/mL
same,"AUClast, males relative to females","[3]; Group 3, Day 14",approximately 3 times
same,Tlast,[3]; Group 3 females,4 h
same,highest mean plasma concentration,[3]; Group 4 (100 mg/kg),1.096 µg/mL
same,"AUClast, males relative to females","[3]; Group 4, Day 14",~2 times
same,plasma concentrations,[3]; [14],< 400 ng/mL
same,concentration at 14 day,"[3]; both sexes, beagle, dog, plasma, Group 2 (10 mg/kg), Day 14, read-out: plasma concentration, only sample greater than LOQ",471 ng/mL
same,Tmax,"[3]; both sexes, beagle, dog, plasma, Groups 3 and 4 except Group 3 males",4 h
same,Cmax,"[3]; both sexes, beagle, dog, plasma, all groups",1000 ng/mL
same,median Tlast,[3]; except Group 3 females,12 h
same,Tmax,"[3]; male, beagle, dog, plasma, 50 mg/kg, Group 3 males",8 h
same,time remained stable at room temperature,[4],6 months
same,IC50,"HSV-1 [5]; Human alphaherpesvirus 1, HSV-1 passage 1",11.7 µM
same,IC50,"HSV-1 [5]; Human alphaherpesvirus 1, HSV-1 passage 2",4.4 µM
same,IC50,"HSV-1 [5]; Human alphaherpesvirus 1, HSV-1 passage 3",8.24 µM
same,IC50,"HSV-1 [5]; Human alphaherpesvirus 1, HSV-1 passage 4",5.97 µM
same,IC50,"HSV-1 [5]; Human alphaherpesvirus 1, HSV-1 passage 5",6.48 µM
same,IC50,"HSV-1 [5]; Human alphaherpesvirus 1, HSV-1 passage 6",6.98 µM
same,IC50,"HSV-1 [5]; Human alphaherpesvirus 1, HSV-1 passage 7",6.98 µM
same,IC50,"HSV-1 [5]; Human alphaherpesvirus 1, HSV-1 passage 8",9.91 µM
same,IC50,"HSV-1 [5]; Human alphaherpesvirus 1, HSV-1 passage 9",8.82 µM
same,IC50,"HSV-1 [5]; Human alphaherpesvirus 1, HSV-1 passage 10",4.77 µM
same,change in IC50 against HSV-1,HSV-1 [5]; following ten passages of virus,no increase in the IC50
same,infection in the other 4 mice,HSV-2,very little infection
same,"mice fully infected, out of 8 mice",HSV-2,4
same,score of the fully infected mice,HSV-2,34
same,histopathology of injection sites compared to DMSO vehicle sites,"[6]; rabbit, in vivo, sc",slight increase in the intensity of reactions
same,effect on body weight or mortality,"[6]; single s.c. injection, any dose group",No treatment-related effect
same,reduction of Sp1 regulated transcription of HPV E6/E7,[7],dramatically reduces Sp1 regulated transcription of HPV E6/E7
same,efficacy against acyclovir-resistant strains of HSV-1,[8],retains complete efficacy
same,early deaths,"[9]; 2% w/w intravaginal, 1 mL once daily for 14 days",no early deaths
same,"gross pathology (enlarged liver, irregularly shaped femur, rabbit 32092)",[9]; Group 2,incidental findings and not test article related
same,hematology vs controls,"[9]; Study Day 15, Group 2 (2% w/w), attributed to individual animal variation",statistically significant lower absolute basophil count
same,clinical chemistry vs controls,"[9]; Study Day 15, Group 2, attributed to individual animal variation",statistically significant lower ALT
same,cumulation after day 14 dosing,"[9]; female rabbits, topical per vaginam",no resultant evidence of cumulation
same,blood concentrations seen,"[9]; female rabbits, topical per vaginam, 4 hours post first dose and day 14",≤ 10 ng/mL
same,start of absorption into the blood,[9]; [15],30 min
same,time of peak absorption into the blood,[9]; [15],4 h
same,effect on measured clinical pathology parameters,[9]; repeated intravaginal administration for 14 days,no apparent test article-related effect
same,inhibition of ICP4 gene transcription,ICP4 gene of HSV,effectively inhibit ICP4 gene transcription
same,tolerability on intravenous administration,[10],generally good tolerability
same,"AUClast, females relative to males","[11]; Group 10, Day 14",~4 times
same,plasma concentrations,"[11]; Groups 8 and 9, Day 14, LOQ 0.4000",< 400 ng/mL
same,plasma concentrations,[11]; [14],< 400 ng/mL
same,Tmax,"[11]; female, females, Group 10, Day 14",4 h
same,Cmax,"[11]; female, females",537 ng/mL
same,Tlast,[11]; females,12 h
same,Tmax,"[11]; male, males, Group 10, Day 14",0.5 h
same,Cmax,"[11]; male, males",333 ng/mL
same,Tlast,[11]; males,8 h
same,toxicity,[12],no toxicity
same,IC50,HIV-1,11 µM
